From patent US6716392B1, “Preservation of liquid biological samples” (The United States of America as represented by the United …, priority 1995, dated 2004)
Like-named read-outs stand apart in the source and are kept apart here. One block for each molecule: values may come before it.

Experiments:
[1] = Stability of spiked APAP and AP in saliva (HPLC); format: physicochemical
Text: Non-invasive estimates of physiological and pharmacokinetic alterations may be obtained by measuring the concentrations of certain compounds and their metabolites in liquid biological samples (e.g., saliva). For example, gastrointestinal activity and the absorption, bioavailability and elimination of acetaininophen (“APAP”) may be assessed by measuring APAP concentrations in liquid biological samples following oral administration of APAP. In addition, hepatic metabolism may be measured indirectly from the clearance of orally administered antipyrine (“AP”) from liquid biological samples. The accuracy of such non-invasive estimates depends, in part, upon the stability of the reference compound or metabolite in the liquid biological sample. Therefore, the effectiveness of a particular preservative may be evaluated by determining the degradation time course for a known quantity of a specific reference compound.
The effectiveness of the preservative of the present invention was evaluated by measuring the stability of APAP and AP in saliva samples stored at −20° C. as compared to saliva samples stored at room temperature and containing sodium benzoate and citric acid in an amount of 0.25% and 0.05% of the sample (weight/volume), respectively (“P1”). Saliva samples were collected from forty subjects, pooled, aliquoted and spiked with APAP (5 or 25 μg/ml) or AP (5 or 50 μg/ml). Duplicate samples were analyzed by high performance liquid chromatography on days 1, 14, 28, 60, 120, 180, 240 and 360 (see Tables 1-4 below).

[2] = format: physicochemical; conditions: for storage time over which concentrations in saliva were comparable / preserved: room temperature in the presence of P1 versus −20° C.; for SALIVA STABILITY OF MELATONIN: human
Protocol: The effectiveness of the preservative of the present invention in maintaining the stability of hormones in liquid biological samples was evaluated by measuring the maintenance of base-line physiological levels of melatonin and cortisol in saliva. Aliquots (non-spiked) of the pooled saliva samples containing base-line physiological levels of melatonin and cortisol were stored −20° C. or at room temperature and containing sodium benzoate and citric acid in an amount of 0.25% and 0.05% of the sample (weight/volume), respectively (“P1”). Duplicate samples were analyzed by radioimmunoassay on days 1, 14, 28, 60, 120, 180, 240 and 360 (see Tables 5 and 6 below).

Saliva Stability (APAP concentration) ([1]; 5 μg/ml APAP, No Preservative, −20° C., Day 01): 5.83 ± 0.08 µg/mL | Saliva Stability (APAP concentration) ([1]; 5 μg/ml APAP, No Preservative, −20° C., Day 14): 6.59 ± 0.61 µg/mL | Saliva Stability (APAP concentration) ([1]; 5 μg/ml APAP, No Preservative, −20° C., Day 28): 5.81 ± 0.08 µg/mL | Saliva Stability (APAP concentration) ([1]; 5 μg/ml APAP, No Preservative, −20° C., Day 60): 5.82 ± 0.20 µg/mL | Saliva Stability (APAP concentration) ([1]; 5 μg/ml APAP, No Preservative, −20° C., Day 120): 5.54 ± 0.33 µg/mL | Saliva Stability (APAP concentration) ([1]; 5 μg/ml APAP, No Preservative, −20° C., Day 180): 3.77 ± 0.03 µg/mL | Saliva Stability (APAP concentration) ([1]; 5 μg/ml APAP, No Preservative, −20° C., Day 240): 4.17 ± 0.16 µg/mL | Saliva Stability (APAP concentration) ([1]; 5 μg/ml APAP, No Preservative, −20° C., Day 360): 5.14 ± 0.09 µg/mL | Saliva Stability (APAP concentration) ([1]; 5 μg/ml APAP, P1, RT, Day 01): 5.49 ± 0.09 µg/mL | Saliva Stability (APAP concentration) ([1]; 5 μg/ml APAP, P1, RT, Day 14): 5.38 ± 0.14 µg/mL | Saliva Stability (APAP concentration) ([1]; 5 μg/ml APAP, P1, RT, Day 28): 4.83 ± 1.79 µg/mL | Saliva Stability (APAP concentration) ([1]; 5 μg/ml APAP, P1, RT, Day 60): 6.89 ± 0.94 µg/mL | Saliva Stability (APAP concentration) ([1]; 5 μg/ml APAP, P1, RT, Day 120): 5.40 ± 0.20 µg/mL | Saliva Stability (APAP concentration) ([1]; 5 μg/ml APAP, P1, RT, Day 180): 4.37 ± 0.08 µg/mL | Saliva Stability (APAP concentration) ([1]; 5 μg/ml APAP, P1, RT, Day 240): 4.29 ± 0.25 µg/mL | Saliva Stability (APAP concentration) ([1]; 5 μg/ml APAP, P1, RT, Day 360): 5.31 ± 0.43 µg/mL | Saliva Stability (APAP concentration) ([1]; 25 μg/ml APAP, No Preservative, −20° C., Day 01): 24.88 ± 0.22 µg/mL | Saliva Stability (APAP concentration) ([1]; 25 μg/ml APAP, No Preservative, −20° C., Day 14): 25.60 ± 0.41 µg/mL | Saliva Stability (APAP concentration) ([1]; 25 μg/ml APAP, No Preservative, −20° C., Day 28): 25.25 ± 0.48 µg/mL | Saliva Stability (APAP concentration) ([1]; 25 μg/ml APAP, No Preservative, −20° C., Day 60): 25.02 ± 0.4 µg/mL | Saliva Stability (APAP concentration) ([1]; 25 μg/ml APAP, No Preservative, −20° C., Day 120): 25.45 ± 0.49 µg/mL | Saliva Stability (APAP concentration) ([1]; 25 μg/ml APAP, No Preservative, −20° C., Day 180): 16.71 ± 0.50 µg/mL | Saliva Stability (APAP concentration) ([1]; 25 μg/ml APAP, No Preservative, −20° C., Day 240): 18.20 ± 0.14 µg/mL | Saliva Stability (APAP concentration) ([1]; 25 μg/ml APAP, No Preservative, −20° C., Day 360): 24.37 ± 0.36 µg/mL | Saliva Stability (APAP concentration) ([1]; 25 μg/ml APAP, P1, RT, Day 01): 24.94 ± 0.56 µg/mL | Saliva Stability (APAP concentration) ([1]; 25 μg/ml APAP, P1, RT, Day 14): 24.63 ± 0.12 µg/mL | Saliva Stability (APAP concentration) ([1]; 25 μg/ml APAP, P1, RT, Day 28): 27.3 ± 1.54 µg/mL | Saliva Stability (APAP concentration) ([1]; 25 μg/ml APAP, P1, RT, Day 60): 29.88 ± 3.58 µg/mL | Saliva Stability (APAP concentration) ([1]; 25 μg/ml APAP, P1, RT, Day 120): 24.20 ± 0.47 µg/mL | Saliva Stability (APAP concentration) ([1]; 25 μg/ml APAP, P1, RT, Day 180): 17.55 ± 0.46 µg/mL | Saliva Stability (APAP concentration) ([1]; 25 μg/ml APAP, P1, RT, Day 240): 17.21 ± 0.36 µg/mL | Saliva Stability (APAP concentration) ([1]; 25 μg/ml APAP, P1, RT, Day 360): 25.70 ± 0.55 µg/mL
Compound: CC(=O)Nc1ccc(O)cc1 [APAP, acetaminophen]

storage time over which concentrations in saliva were comparable / preserved [2]: 180 days
Compound: C[C@]12CCC(=O)C=C1CC[C@@H]1[C@@H]2[C@@H](O)C[C@@]2(C)[C@H]1CC[C@]2(O)C(=O)CO [Cortisol, cortisol]

SALIVA STABILITY OF MELATONIN ([2]; 28 day): 31.71 ± 4.4 pg/mL | SALIVA STABILITY OF MELATONIN ([2]; 28 days): 29.43 ± 5.9 pg/mL | storage time over which concentrations in saliva were comparable / preserved [2]: 180 days
Compound: COc1ccc2[nH]cc(CCNC(C)=O)c2c1 [Melatonin, melatonin]
